One assay deals with DNAJB1 equals Hsp40. In words: HSF1 target gene transcript expression qPCR in C4-2 cells, Hsp40. The following applies: Homo sapiens, 2 hours then SNX-2112 (100 nM) 5 hr, vs GAPDH and DMSO. Format: cell-based. The procedure:
(§1) Next, the change in heat shock protein gene expression in C4-2 prostate cancer cells was determined. C4-2 prostate cancer cells were grown in RMPI-1640 (no L-glutamine, Gibco 21870076) supplemented with 10% fetal bovine […] (non-heat-inactivated, Cytiva Hyclone SH30071.03). To quantitatively measure the inhibition of HSF1 activity in C4-2 prostate cancer cells, compounds or DMSO were added to triplicate C4-2 cell cultures for 2 hours. HSF1 activity was then stimulated with the Hsp90 inhibitor SNX-2112 (100 nM) for an additional 5 hr at 37° C. in the presence of HSF1 degrader compounds or DMSO. Total RNA was extracted, converted to cDNA and used in qPCR assays to quantify the change in HSF1 target gene transcript expression (HSPA4L equals Hsp70, HSPB1 equals Hsp27 and DNAJB1 equals Hsp40) as compared to GAPDH internal control gene, and then compared to DMSO negative control.
In general terms: Quantitative PCR measures a nucleic acid by following its amplification.

Another assay concerns Hsp70. The assay is described as follows: HSF1 target gene transcript expression qPCR in C4-2 cells, Hsp70. Format: cell-based. The following applies: Homo sapiens, 2 hours then SNX-2112 (100 nM) 5 hr, vs GAPDH and DMSO. The procedure:
as §1

For assay [1], the target named is T1, purified recombinant human HSF1 (HSF1 DNA binding domain) (Homo sapiens, UniProt Q00613).
T1 sequence (Q00613 15-120): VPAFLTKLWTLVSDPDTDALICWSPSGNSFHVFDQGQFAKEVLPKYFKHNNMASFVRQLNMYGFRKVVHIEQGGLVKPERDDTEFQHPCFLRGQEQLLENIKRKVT
The assay is described as follows: Melting temperature of HSF1 DBD with HSF1 degrader compounds (Sypro orange). The following applies: read-out: ΔTm (° C.). The procedure: The melting temperature (ΔTm) for purified recombinant human HSF1 (HSF1 DNA binding domain) was determined in the presence of HSF1 degrader compounds shown in Table 5 and compared to the solvent DMSO. Sypro orange dye was added to the HSF1 DBD (5 micromolar final concentration) in buffer, mixed and distributed to wells in 384 well microtiter plates. HSF1 degrader compound (12.5 micromolar) or DMSO solvent was added to three replicate wells per compound concentration, mixed and plates loaded into a Quant Studio thermnocycler and run on a temperature gradient from 25° C. to 85° C. with increments of 0.5° C. steps. Melting curves were obtained and analyzed using the ThermnoFisher Shift Software 1.4 fitted with a Boltzmann equation to determine the change in melting temperature of the protein in the presence of DMSO as compared to compound. The difference in the melting temperature under these two conditions was assigned as the change in melting temperature of ΔTm.

Assay [2] concerns C4-2 prostate cancer cells. The assay is described as follows: C4-2 cell proliferation, Cell Titre Glo. Type of assay: cell-based. The following applies: Homo sapiens, 48-hour period, 9-point dilution series, read-out: Cell Viability IC50. The procedure: Next, cell viability of C4-2 prostate cancer cells was determined. C4-2 prostate cancer cells were grown in RMPI-1640 (no L-glutamine, Gibco 21870076) supplemented with 10% fetal bovine […] (non-heat-inactivated, Cytiva Hyclone SH30071.03). […] A 9-point dilution series was used to assess the ability of each compound to inhibit the growth of C4-2 prostate cancer cells over a 48-hour period, as compared to negative control solvent, DMSO. Cell proliferation was measured by the Cell Titre Glo assay using 384 well microtiter plate reader to quantitate luminescence. The IC50 was determined from the values obtained.

The target in assay [3] is T2, recombinant HSF1 DNA-binding domain (DBD) (Homo sapiens, UniProt Q00613).
T2 sequence (Q00613 15-120): T1 sequence (Q00613 15-120)
In words: Differential Scanning Fluorimetry (DSF), HSF1 DBD melting temperature. The following applies: Table 3; 5 μM HSF1 DBD, 25PM Compound; positive = stabilizes, negative = destabilizes HSF1. For orientation: DSF heats the sample and reads unfolding from a dye or from intrinsic fluorescence.

Where [4] appears, read: 12.5 micromolar compound, 5 micromolar HSF1 DBD, compared to DMSO.

Where two headings read alike, the source gives them in different places.

Broadly, the ΔTm is the shift of the melting midpoint relative to a reference. What is called IC50 is the concentration at which inhibition is half-maximal.

Consider `N#Cc1ccc(NC(=O)Nc2ccc3c(c2)S(=O)(=O)C=C3)nc1` [Compound 266, 1-(5-cyanopyridin-2-yl)-3-(1,1-dioxidobenzo[b]thiophen-6-yl)urea], for which the mrna remaining at 10 µM came out at 93% in the assay with DNAJB1 equals Hsp40 and 83% in the assay on Hsp70. In addition, the shift in melting temperature (ΔTm) at 12.5 µM in assay [1] (setting [4]) is -0.64 °C. Further, in assay [2], the IC50 was 0.81 µM.
As for `N#Cc1ccc(NC(=O)Nc2ccc(Cl)c(S(=O)(=O)C(F)(F)F)c2)c(CCN2CCOCC2)c1` [Compound 298, 1-(4-chloro-3-((trifluoromethyl)sulfonyl)phenyl)-3-(4-cyano-2-(2-morpholinoethyl)phenyl)urea], the ΔTm at 25 µM in assay [3] came out at 2.28 °C. In addition, the ΔTm at 12.5 µM in assay [1] (setting [4]) stood at 1 °C. Moreover, the IC50 in assay [2] was greater than 10 µM.
As for `N#Cc1ccc(NC(=O)Nc2ccc3c(c2)S(=O)(=O)C=C3)cc1CN1CCOCC1` [Compound 291, 1-(4-cyano-3-(morpholinomethyl)phenyl)-3-(1,1-dioxidobenzo[b]thiophen-6-yl)urea], the ΔTm at 25 µM in assay [3] was -4.4 °C. The ΔTm at 12.5 µM in assay [1] was -0.44 °C. The IC50 in assay [2] was greater than 10 µM.
On the same counts, the results for `CN(C)CCc1cc(C#N)ccc1NC(=O)Nc1ccc(Cl)c(S(=O)(=O)C(F)(F)F)c1` [Compound 296, 1-(4-chloro-3-((trifluoromethyl)sulfonyl)phenyl)-3-(4-cyano-2-(2-(dimethylamino)ethyl)phenyl)urea] are -5.21 °C, 0.43 °C and greater than 10 µM.
In the case of `N#Cc1ccc(NC(=O)Nc2ccc(Cl)c(S(=O)(=O)C(F)(F)F)c2)c(OCCN2CCOCC2)c1` [Compound 299, 1-(4-chloro-3-((trifluoromethyl)sulfonyl)phenyl)-3-(4-cyano-2-(2-morpholinoethoxy)phenyl)urea], the ΔTm at 25 µM in assay [3] worked out at 0.49 °C. For the same molecule, the ΔTm at 12.5 µM in assay [1] (setting [4]) was determined as 0.2 °C. The 50% inhibitory concentration (IC50) in assay [2] was greater than 10 µM.
On the same counts, the results for `N#Cc1ccc(NC(=O)Nc2ccc(CCN3CCOCC3)c(S(=O)(=O)C(F)(F)F)c2)cc1` [Compound 289, 1-(4-cyanophenyl)-3-(4-(2-morpholinoethyl)-3-((trifluoromethyl)-sulfonyl)phenyl)urea] are 3.2 °C, 2.6 °C and 8.91 µM.
For `N#Cc1ccc(NC(=O)Nc2ccc3c(c2)S(=O)(=O)C=C3)cc1CCN1CCOCC1` [Compound 292, 1-(4-cyano-3-(2-morpholinoethyl)phenyl)-3-(1,1-dioxidobenzo[b]thiophen-6-yl)urea], the ΔTm at 25 µM in assay [3] amounted to 3.33 °C. Further, the ΔTm at 12.5 µM in assay [1] is -0.76 °C. Moreover, the IC50 in assay [2] is greater than 10 µM.
As for `N#Cc1ccc(NC(=O)Nc2ccc3c(c2)S(=O)(=O)c2ccccc2-3)cc1` [Compound 277, 1-(4-cyanophenyl)-3-(5,5-dioxidodibenzo[b,d]thiophen-3-yl)urea], the ΔTm at 12.5 µM in assay [1] (setting [4]) is -2.3 °C. In addition, the IC50 in assay [2] was 5.65 µM.
For the molecule `N#Cc1ccc(NC(=O)Nc2ccc(Cl)c([N+](=O)[O-])c2)cc1C(F)(F)F` [Compound 240, 1-(4-chloro-3-nitrophenyl)-3-(4-cyano-3-(trifluoromethyl)phenyl)urea], in assay [1], the ΔTm at 12.5 µM was 3.01 °C. The IC50 in assay [2] was found to be 0.563 µM.
In the case of `N#Cc1ccc(NC(=O)Nc2ccc(Cl)c(S(=O)(=O)C(F)(F)F)c2)cc1CN1CCOCC1` [Compound 285, 1-(4-chloro-3-((trifluoromethyl)sulfonyl)phenyl)-3-(4-cyano-3-(morpholinomethyl)phenyl)urea], the shift in melting temperature (ΔTm) at 25 µM in assay [3] is -7.52 °C. The ΔTm at 12.5 µM in assay [1] stood at 1.23 °C. Further, the IC50 in assay [2] worked out at 4.81 µM.
On to `Cc1cc(NC(=O)Nc2ccc3c(c2)S(=O)(=O)C=C3)ccc1C#N` [Compound 261, 1-(4-cyano-3-methylphenyl)-3-(1,1-dioxidobenzo[b]thiophen-6-yl)urea], for which the ΔTm at 12.5 µM in assay [1] (setting [4]) was 1.06 °C. Moreover, the IC50 in assay [2] is 2.29 µM.
For `N#Cc1ccc(NC(=O)Nc2ccc(C#N)c(C(F)(F)F)c2)cc1C(F)(F)F` [Compound 252, 1,3-bis(4-cyano-3-(trifluoromethyl)phenyl)urea], the ΔTm at 12.5 µM in assay [1] is 1.33 °C. Also, the IC50 in assay [2] came out at 2.08 µM.
As for `N#Cc1ccc(NC(=O)Nc2ccc(Cl)c(S(=O)(=O)C(F)(F)F)c2)cc1OCCN1CCOCC1` [Compound 293, 1-(4-chloro-3-((trifluoromethyl)sulfonyl)phenyl)-3-(4-cyano-3-(2-morpholinoethoxy)phenyl)urea], the thermal shift (ΔTm) at 25 µM in assay [3] was -4.19 °C. Further, the ΔTm at 12.5 µM in assay [1] came to 1.13 °C. Moreover, in assay [2], the half-maximal inhibitory concentration (IC50) worked out at 6.05 µM.
Regarding `N#Cc1ccc(NC(=O)Nc2ccc(Cl)c(S(=O)(=O)C(F)(F)F)c2)c(CN2CCOCC2)c1` [Compound 297, 1-(4-chloro-3-((trifluoromethyl)sulfonyl)phenyl)-3-(4-cyano-2-(morpholinomethyl)phenyl)urea], in assay [3], the ΔTm at 25 µM worked out at 2.08 °C. For the same molecule, the ΔTm at 12.5 µM in assay [1] (setting [4]) came out at 1.1 °C. For the same molecule, in assay [2], the 50% inhibitory concentration (IC50) was greater than 10 µM.
Consider `N#Cc1ccc(NC(=O)Nc2ccc(OCCN3CCOCC3)c(S(=O)(=O)C(F)(F)F)c2)cc1` [Compound 294, 1-(4-cyanophenyl)-3-(4-(2-morpholinoethoxy)-3-((trifluoromethyl)sulfonyl)phenyl)urea], for which the ΔTm at 25 µM in assay [3] was -9.02 °C. The thermal shift (ΔTm) at 12.5 µM in assay [1] amounted to 2.24 °C. Further, in assay [2], the IC50 was found to be 9.82 µM.
As to `N#Cc1ccc(NC(=O)Nc2ccc(Cl)c([N+](=O)[O-])c2)cc1` [Compound 239, 1-(4-chloro-3-nitrophenyl)-3-(4-cyanophenyl)urea], in assay [1] (setting [4]), the ΔTm at 12.5 µM was determined as 3.13 °C. The 50% inhibitory concentration (IC50) in assay [2] is 2.94 µM.
On to `N#Cc1ccc(NC(=O)Nc2ccc(CN3CCOCC3)c(S(=O)(=O)C(F)(F)F)c2)cc1` [Compound 288, 1-(4-cyanophenyl)-3-(4-(morpholinomethyl)-3-((trifluoromethyl)sulfonyl)phenyl)urea], for which the ΔTm at 25 µM in assay [3] came out at 3.27 °C. In addition, the ΔTm at 12.5 µM in assay [1] was 2.24 °C. Also, the IC50 in assay [2] turned out to be 8.9 µM.
On the same counts, the results for `N#Cc1ccc(NC(=O)Nc2ccc(Cl)c(S(=O)(=O)C(F)(F)F)c2)cc1CCN1CCOCC1` [Compound 286, 1-(4-chloro-3-((trifluoromethyl)sulfonyl)phenyl)-3-(4-cyano-3-(2-morpholinoethyl)phenyl)urea] are -6.23 °C, 1.64 °C and 5.95 µM.
On to `N#Cc1cnc(NC(=O)Nc2ccc3c(c2)S(=O)(=O)C=C3)cn1` [Compound 268, 1-(5-cyanopyrazin-2-yl)-3-(1,1-dioxidobenzo[b]thiophen-6-yl)urea], for which the ΔTm at 12.5 µM in assay [1] (setting [4]) is 0.39 °C. In addition, in assay [2], the IC50 stood at 7.79 µM.
The corresponding values for `COc1cc(NC(=O)Nc2ccc3occc3c2)ccc1C#N` [Compound 251] are 2.06 °C and greater than 10 µM.
The corresponding values for `COc1cc(NC(=O)Nc2ccc(Cl)c([N+](=O)[O-])c2)ccc1C#N` [Compound 241, 1-(4-chloro-3-nitrophenyl)-3-(4-cyano-3-methoxyphenyl)urea] are 2.63 °C and 5.57 µM.
The corresponding values for `N#Cc1ccc(NC(=O)Nc2ccc3c(c2)C(=O)CC3)cc1` [Compound 283, 1-(4-cyanophenyl)-3-(3-oxo-2,3-dihydro-1H-inden-5-yl)urea] are 0.1 °C and greater than 10 µM.
As to `CN(C)CCc1cc(NC(=O)Nc2ccc3c(c2)S(=O)(=O)C=C3)ccc1C#N` [Compound 290, 1-(4-cyano-3-(2-(dimethylamino)ethyl)phenyl)-3-(1,1-dioxidobenzo[b]thiophen-6-yl)urea], the ΔTm at 25 µM in assay [3] was found to be 3.28 °C. Moreover, the shift in melting temperature (ΔTm) at 12.5 µM in assay [1] was -0.3 °C. Also, the IC50 in assay [2] was greater than 10 µM.
Consider `N#Cc1ccc(NC(=O)Nc2ccc3c(c2)S(=O)(=O)CCC3)cc1` [Compound 279], for which the ΔTm at 12.5 µM in assay [1] (setting [4]) turned out to be 1.29 °C. The IC50 in assay [2] was greater than 10 µM.
For the molecule `N#Cc1ccc(NC(=O)Nc2ccc(C#N)cc2)cc1` [Compound 253, 1,3-bis(4-cyanophenyl)urea], in assay [1] (setting [4]), the ΔTm at 12.5 µM worked out at 1.91 °C. In assay [2], the IC50 is greater than 10 µM.

(Values after patent US20240317727A1 (Duke University, priority 2018, published 2024).)
